# PubChem BioAssay AID220 (DTP/NCI, 2004)
# Several values for one entry are separate records, joined by “and”; a condition that tells them apart may be missing. Equal values may be shown once. Results filed as inconclusive are left out.
# System: CD8F1 mice, subcutaneous mammary adenocarcinoma, T/C%
# Assay: NCI In Vivo Anticancer Drug Screen. Data for tumor model Mammary Adenocarcinoma CD8F1 (subcutaneous) in CD8F1
# Details: higher = larger tumour
# How it was run: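 Ratio of treated to vehicle-control outcome, based on either survival or tumor size, in mice bearing transplantable tumors given the test compound.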
# [1] = endpoint: median tumor weight (est.), dose: 25.0 mg/kg/injection, schedule: Q07DX005 (ip), vehicle: Klucel (hydroxypropylcellulose) (HPC)
# [2] = endpoint: median tumor weight (est.), dose: 50.0 mg/kg/injection, schedule: Q07DX005 (ip), vehicle: Klucel (hydroxypropylcellulose) (HPC)
# [3] = endpoint: median tumor weight (est.), dose: 100.0 mg/kg/injection, schedule: Q07DX005 (ip), vehicle: Klucel (hydroxypropylcellulose) (HPC)
# [4] = endpoint: median tumor weight change, dose: 62.5 mg/kg/injection, schedule: Q01DX001 (ip), vehicle: saline with Tween-80
# [5] = endpoint: median tumor weight change, dose: 250.0 mg/kg/injection, schedule: Q01DX001 (ip), vehicle: saline with Tween-80
# [6] = endpoint: median tumor weight change, dose: 500.0 mg/kg/injection, schedule: Q01DX001 (ip), vehicle: saline with Tween-80
# [7] = endpoint: median tumor weight change, dose: 125.0 mg/kg/injection, schedule: Q01DX001 (ip), vehicle: saline with Tween-80
smiles,measurement,setting,value
CC(=O)OC1COC(NC(=O)N(CCCl)N=O)C(OC(C)=O)C1OC(C)=O (centres undefined),T/C,"endpoint: median tumor weight (est.), dose: 1.5 mg/kg/injection, schedule: Q07DX004 (ip), vehicle: saline with Tween-80",32 % of control
same,T/C,"endpoint: median tumor weight (est.), dose: 3.0 mg/kg/injection, schedule: Q07DX004 (ip), vehicle: saline with Tween-80",103 % of control
same,T/C,"endpoint: median tumor weight (est.), dose: 6.0 mg/kg/injection, schedule: Q07DX004 (ip), vehicle: saline with Tween-80",35 % of control
same,T/C,"endpoint: median tumor weight (est.), dose: 6.0 mg/kg/injection, schedule: Q07DX005 (ip), vehicle: saline with Tween-80",103 % of control
same,T/C,"endpoint: median tumor weight (est.), dose: 12.0 mg/kg/injection, schedule: Q07DX005 (ip), vehicle: saline with Tween-80",68 % of control
same,T/C,"endpoint: median tumor weight (est.), dose: 24.0 mg/kg/injection, schedule: Q07DX005 (ip), vehicle: saline with Tween-80",46 % of control
CCc1nc(N)nc(N)c1-c1ccc(Cl)c(Cl)c1,T/C,"endpoint: mean tumor weight (est.), dose: 40.0 mg/kg/injection, schedule: Q07DX003 (ip), vehicle: saline with Tween-80",107 % of control
same,T/C,"endpoint: mean tumor weight (est.), dose: 50.0 mg/kg/injection, schedule: Q07DX003 (ip), vehicle: saline with Tween-80",100 % of control
same,T/C,"endpoint: mean tumor weight (est.), dose: 60.0 mg/kg/injection, schedule: Q07DX003 (ip), vehicle: saline with Tween-80",93 % of control
same,T/C,"endpoint: mean tumor weight (est.), dose: 60.0 mg/kg/injection, schedule: Q07DX004 (ip), vehicle: saline with Tween-80",35 % of control
same,T/C,"endpoint: mean tumor weight (est.), dose: 80.0 mg/kg/injection, schedule: Q07DX004 (ip), vehicle: saline with Tween-80",50 % of control
Cc1nn(CCO)c(C)c1N=[N+]([O-])c1c(C)nn(CCO)c1C,T/C,"endpoint: median tumor weight (est.), dose: 6.25 mg/kg/injection, schedule: Q07DX005 (ip), vehicle: Klucel (hydroxypropylcellulose) (HPC)",57 % of control
same,T/C,"endpoint: median tumor weight (est.), dose: 12.5 mg/kg/injection, schedule: Q07DX005 (ip), vehicle: Klucel (hydroxypropylcellulose) (HPC)",63 % of control
same,T/C,[1],91 % of control
same,T/C,[2],104 % of control
same,T/C,[3],43 % of control
O=Cc1c(O)c2ccccc2[nH]c1=O,T/C,"endpoint: median tumor weight change, dose: 62.0 mg/kg/injection, schedule: Q01DX001 (ip), vehicle: saline with Tween-80",112 % of control
same,T/C,[4],69 % of control
same,T/C,[5],61 % of control and 67 % of control
same,T/C,[6],55 % of control
CC(C)NC(=O)OCc1c(COC(=O)NC(C)C)c(-c2ccc(Cl)c(Cl)c2)n2c1CCC2,T/C,"endpoint: median tumor weight (est.), dose: 12.5 mg/kg/injection, schedule: Q07DX005 (ip), vehicle: distilled water + Tween-80",67 % of control
same,T/C,"endpoint: median tumor weight (est.), dose: 25.0 mg/kg/injection, schedule: Q07DX005 (ip), vehicle: distilled water + Tween-80",120 % of control
same,T/C,"endpoint: median tumor weight (est.), dose: 50.0 mg/kg/injection, schedule: Q07DX005 (ip), vehicle: distilled water + Tween-80",21 % of control
same,T/C,"endpoint: median tumor weight (est.), dose: 100.0 mg/kg/injection, schedule: Q07DX005 (ip), vehicle: distilled water + Tween-80",6 % of control
COc1cc([C@@H]2c3cc4c(cc3[C@@H](OC3OC5CO[C@@H](c6cccs6)OC5C(O)C3O)[C@H]3COC(=O)[C@H]23)OCO4)cc(OC)c1O (some centres undefined),T/C,"endpoint: median tumor weight (est.), dose: 2.0 mg/kg/injection, schedule: Q07DX005 (ip), vehicle: suspension in saline",90 % of control and 103 % of control
same,T/C,"endpoint: median tumor weight (est.), dose: 4.0 mg/kg/injection, schedule: Q07DX005 (ip), vehicle: saline",23 % of control
same,T/C,"endpoint: median tumor weight (est.), dose: 4.0 mg/kg/injection, schedule: Q07DX005 (ip), vehicle: suspension in saline",87 % of control and 100 % of control
same,T/C,"endpoint: median tumor weight (est.), dose: 8.0 mg/kg/injection, schedule: Q07DX005 (ip), vehicle: suspension in saline",81 % of control and 92 % of control
same,T/C,"endpoint: median tumor weight (est.), dose: 16.0 mg/kg/injection, schedule: Q07DX005 (ip), vehicle: saline",47 % of control
same,T/C,"endpoint: median tumor weight (est.), dose: 32.0 mg/kg/injection, schedule: Q07DX005 (ip), vehicle: saline",25 % of control
same,T/C,"endpoint: median tumor weight (est.), dose: 32.0 mg/kg/injection, schedule: Q07DX005 (ip), vehicle: suspension in saline",51 % of control and 57 % of control
same,T/C,"endpoint: median tumor weight change, dose: 20.0 mg/kg/injection, schedule: Q01DX001 (ip), vehicle: suspension in saline",96 % of control
same,T/C,"endpoint: median tumor weight change, dose: 40.0 mg/kg/injection, schedule: Q01DX001 (ip), vehicle: suspension in saline",74 % of control
same,T/C,"endpoint: median tumor weight change, dose: 80.0 mg/kg/injection, schedule: Q01DX001 (ip), vehicle: suspension in saline",91 % of control
same,T/C,"endpoint: median tumor weight change, dose: 160.0 mg/kg/injection, schedule: Q01DX001 (ip), vehicle: suspension in saline",117 % of control
same,T/C,"endpoint: median tumor weight change, dose: 320.0 mg/kg/injection, schedule: Q01DX001 (ip), vehicle: suspension in saline",80 % of control
CC(C)CCC[C@@H](C)[C@H]1CC[C@H]2[C@@H]3CC=C4C[C@@H](OC(=O)Cc5ccc(N(CCCl)CCCl)cc5)CC[C@]4(C)[C@H]3CC[C@]12C,T/C,[1],91 % of control
same,T/C,[2],73 % of control
same,T/C,[3],123 % of control
same,T/C,"endpoint: median tumor weight (est.), dose: 200.0 mg/kg/injection, schedule: Q07DX005 (ip), vehicle: Klucel (hydroxypropylcellulose) (HPC)",57 % of control
same,T/C,"endpoint: median tumor weight (est.), dose: 400.0 mg/kg/injection, schedule: Q07DX005 (ip), vehicle: Klucel (hydroxypropylcellulose) (HPC)",102 % of control
same,T/C,"endpoint: median tumor weight (est.), dose: 800.0 mg/kg/injection, schedule: Q07DX005 (ip), vehicle: Klucel (hydroxypropylcellulose) (HPC)",36 % of control
C[C@]12CC[C@H](O)CC1=CC[C@@H]1[C@@H]2CC[C@]2(C)C(=O)CC[C@@H]12,T/C,[4],115 % of control
same,T/C,[5],104 % of control
same,T/C,[6],90 % of control
same,T/C,"endpoint: median tumor weight change, dose: 1000.0 mg/kg/injection, schedule: Q01DX001 (ip), vehicle: saline with Tween-80",70 % of control
C=C(C(=O)O)C(N)C(=O)O (centres undefined),T/C,"endpoint: median tumor weight change, dose: 62.5 mg/kg/injection, schedule: Q01DX001 (ip), vehicle: saline",96 % of control
same,T/C,"endpoint: median tumor weight change, dose: 125.0 mg/kg/injection, schedule: Q01DX001 (ip), vehicle: saline",100 % of control
same,T/C,"endpoint: median tumor weight change, dose: 250.0 mg/kg/injection, schedule: Q01DX001 (ip), vehicle: saline",61 % of control
same,T/C,"endpoint: median tumor weight change, dose: 500.0 mg/kg/injection, schedule: Q01DX001 (ip), vehicle: saline",71 % of control
O=C1C(NCC(O)CO)=C(N2CC2)C(=O)C(NCC(O)CO)=C1N1CC1 (centres undefined),T/C,"endpoint: median tumor weight change, dose: 4.0 mg/kg/injection, schedule: Q01DX001 (ip), vehicle: saline",123 % of control
same,T/C,"endpoint: median tumor weight change, dose: 4.0 mg/kg/injection, schedule: Q01DX001 (ip), vehicle: suspension in saline",55 % of control
same,T/C,"endpoint: median tumor weight change, dose: 8.0 mg/kg/injection, schedule: Q01DX001 (ip), vehicle: saline",19 % of control
same,T/C,"endpoint: median tumor weight change, dose: 8.0 mg/kg/injection, schedule: Q01DX001 (ip), vehicle: suspension in saline",35 % of control (2×) and 55 % of control
same,T/C,"endpoint: median tumor weight change, dose: 16.0 mg/kg/injection, schedule: Q01DX001 (ip), vehicle: saline",3 % of control
Clc1ccc(CN2COc3c(ccc4cccnc34)C2)cc1Cl,T/C,"endpoint: median tumor weight (est.), dose: 25.0 mg/kg/injection, schedule: Q07DX005 (ip), vehicle: saline with Tween-80",113 % of control
same,T/C,"endpoint: median tumor weight (est.), dose: 50.0 mg/kg/injection, schedule: Q07DX005 (ip), vehicle: saline with Tween-80",65 % of control
same,T/C,"endpoint: median tumor weight (est.), dose: 200.0 mg/kg/injection, schedule: Q07DX005 (ip), vehicle: saline with Tween-80",66 % of control
same,T/C,"endpoint: median tumor weight (est.), dose: 400.0 mg/kg/injection, schedule: Q07DX005 (ip), vehicle: saline with Tween-80",96 % of control
COc1cccc2c1C(=O)c1c(O)c3c(c(O)c1C2=O)C[C@H](O)C[C@@H]3OC1CC(N)C(O)C(C)O1 (some centres undefined),T/C,"endpoint: median tumor weight (est.), dose: 0.78 mg/kg/injection, schedule: Q07DX005 (ip), vehicle: saline",68 % of control
same,T/C,"endpoint: median tumor weight (est.), dose: 1.56 mg/kg/injection, schedule: Q07DX005 (ip), vehicle: saline",79 % of control
same,T/C,"endpoint: median tumor weight (est.), dose: 3.12 mg/kg/injection, schedule: Q07DX005 (ip), vehicle: saline",82 % of control
same,T/C,"endpoint: median tumor weight (est.), dose: 6.25 mg/kg/injection, schedule: Q07DX005 (ip), vehicle: saline",84 % of control
same,T/C,"endpoint: median tumor weight (est.), dose: 12.5 mg/kg/injection, schedule: Q07DX005 (ip), vehicle: saline",70 % of control
CCC1=C2C(=O)c3ccccc3C2=C(C)S(=O)(=O)O1,T/C,"endpoint: median tumor weight change, dose: 31.25 mg/kg/injection, schedule: Q01DX001 (ip), vehicle: saline with Tween-80",120 % of control
same,T/C,[4],185 % of control
same,T/C,[7],116 % of control
CN=C(N)N/N=C(\C)c1ccc2c(c1)Cc1ccccc1-2,T/C,[7],60 % of control
same,T/C,[5],55 % of control
